The target of one experiment is adenosine A2A receptor (Homo sapiens (Human), UniProt P29274). In words: A2A adenosine receptor radioligand binding competition assay (filter plates). How it is done: (§1) Binding of selected compounds to the adenosine A2A, A1, A2B, and A3 receptors was tested using a binding competition assay.
(§2) The general protocol for the radioligand binding competition assay was as follows. Competition binding was performed in duplicate in the wells of a 96 well plate (Master Block, Greiner, 786201) containing binding buffer (optimized for each receptor), membrane extracts (amount of protein/well optimized for each receptor), radiotracer (final concentration optimized for each receptor), and test compound. Nonspecific binding was determined by co-incubation with 200-fold excess of cold competitor. The samples were incubated in a final volume of 0.1 mL at 25° C. for 60 minutes and then filtered over filter plates. Filters were washed six times with 0.5 mL of ice-cold washing buffer (optimized for each receptor) and 50 μL of Microscint 20 (Packard) were added on each filter. The filter plates were sealed, incubated 15 min on an orbital shaker and scintillation counted with a TopCount for 30 sec/filter.
For the A2A adenosine receptor radioligand binding assay, the following modifications were made to the general protocol. GF/C filters (Perkin Elmer, 6005174), presoaked in 0.01% Brij for 2 h at room temperature were used. Filters were washed six times with 0.5 mL of ice-cold washing buffer (50 mM Tris pH 7.4) and 50 μL of Microscint 20 (Packard) was added in each well. The plates were then incubated for 15 min on an orbital shaker and then counted with a TopCount™ for 1 min/well. Another radioligand binding assay was used to evaluate the binding affinity for the adenosine A2A receptor assay was performed in duplicate in the wells of a 384 plate. Assay buffer contained DPBS 500 mM, MgCl2 0.1 mM, and 1% DMSO. Membrane-bead suspension was prepared by mixing 25.98 μL of human adenosine A2A membrane preparation (Perkin Elmer, RBHA2AM400UA) at 33.4 μg/mL, 28 μL of ADA at 20 μg/mL, and 932 μL of SPA beads at 3.33 mg/mL) and incubated the mixture for 20 min at room temperature. Mixed 20 μL of radiotracer (^3H-SCH 58261) at 15 nM to each well containing test articles at various concentrations and centrifuge the plate at 1000 rpm for 1 minute. Added 30 μL of the membraine-bead suspension to each well. Sealed the plates and incubated for 1 hr at room temperature with vigorous mixing on a plate mixer. Plates were read on Microbeta^2 (Perkin Elmer, 2450-0010).

Experiment [1] deals with adenosine A1 receptor (CHO-K1-A1 cell membranes) (Homo sapiens (Human), UniProt P30542). In words: Adenosine A1 radioligand binding competition assay (3H-DPCPX). As to the method: as §1
as §2, with “sec/filter. […]” for “sec/filter.”

Experiment [2] deals with adenosine A2B receptor (HEK-293-A2B cell membranes) (Homo sapiens (Human), UniProt P29275). In words: Adenosine A2B radioligand binding competition assay (3H-DPCPX). As to the method:
as §1
as §2, with “sec/filter. […]” for “sec/filter.”

For experiment [3], the target named is adenosine A3 receptor (CHO-K1-A3 cell membranes) (Homo sapiens (Human), UniProt P0DMS8). In words: Adenosine A3 radioligand binding competition assay (125I-AB-MECA). How it is done: as §1, §2
For the adenosine A3 radioligand binding competition assay, the following reagents were used:
CHO-K1-A3 cell membranes, 1.5 μg/well; a binding buffer comprising HEPES 25 mM pH 7.4, MgCl2 5 mM, CaCl2 1 mM, 0.5% BSA; a wash buffer comprising HEPES 25 mM pH 7.4, MgCl2 5 mM, CaCl2 1 mM; a Unifilter GF/C—treated for 2 h with 0.5% BS; and 0.4 nM of ^125I-AB-MECA as the tracer.

For experiment [4], the target named is HEK-293 cells expressing human recombinant adenosine A2A receptor (Homo sapiens (Human), UniProt P29274). In words: cAMP assay, Assay 1 (HTRF kit). The experiment is classed as cell-based. The conditions noted are these: for inhibition at 0.1 µM: HEK293, 100 nM, read-out: A2a cAMP (% inh @ 100 nM). How it is done: The functional activity of compounds was tested using one of the two assays to detect the present of cAMP. Activation of G-protein coupled receptors (such as A2A) results in activation of adenylcyclase which converts ATP into cAMP which is used as a downstream signaling molecule. Therefore, molecules which act as GPCR (or specifically A2A receptor) antagonists cause a decrease in intracellular cAMP concentration.
Both assays used HEK-293 cells expressing human recombinant adenosine A2A receptor were grown prior to the test in media without antibiotic.
12 μL of cells were mixed with 6 μL of the test compound at increasing concentrations and then incubated for 10 min. Thereafter 6 μL of the reference agonist was added at a final concentration corresponding to the historical EC80. The plates were then incubated for 30 min at room temperature. After addition of the lysis buffer and 1 hour incubation, cAMP concentrations were estimated, according to the manufacturer specification, with the HTRF® kit.

For experiment [5], the target named is recombinant human A2A receptor (Homo sapiens (Human), UniProt P29274). Briefly: GTPγ35S scintillation proximity assay for A2A receptor. The conditions noted are these: read-out: A2A γGTP assay (% Inh Avg) @ 100 nM. It counts as biochemical. As to the method:
For antagonist testing, membranes extracts were prepared from HEK-293 cells expressing recombinant human A2A receptor, were mixed with GDP (volume:volume) and were incubated in assay buffer comprising 20 mM HEPES pH 7.4; 100 mM NaCl, 10 μg/mL saponin, 5 mM MgCl2 for at least 15 min on ice. In parallel, GTPγ[^35S] was mixed with the beads (volume:volume) just before starting the reaction. The following reagents were successively added in the wells of an Optiplate (Perkin Elmer): 25 μL of test compound or reference ligand, 25 μL of the membranes: GDP mix, 25 μL of reference agonist at historical EC80 and 25 μL of GTPγ[^35S] (PerkinElmer NEG030X), diluted in assay buffer to give 0.1 nM. The plate was incubated at room temperature for 1 hour. Then, 20 μL of IGEPAL was added for 30 minutes at room temperature. Following this incubation, 20 μL of beads (PVT-anti rabbit (PerkinElmer, RPNQ0016)), diluted in assay buffer at 50 mg/mL (0.5 mg/10 μL) and 20 μL of an Anti-GαS/olf antibody were added for a final incubation of 3 hours at room temperature. Then, the plates were centrifuged for 10 min at 2000 rpm, incubated at room temperature for 1 hour and counted for 1 min/well with a PerkinElmer TopCount reader.
On the technique in general: In a scintillation proximity assay essentially only radioactivity close to the scintillant gives light.

This is an account of results in patent US11028058B2, “Heterocyclic compounds as adenosine antagonists” (NUVATION BIO INC., priority 2017, dated 2021).

In general, IC50 refers to the concentration that gives 50% inhibition.

HEK-293 cells expressing human recombinant adenosine A2A receptor, sequence (P29274 whole entry): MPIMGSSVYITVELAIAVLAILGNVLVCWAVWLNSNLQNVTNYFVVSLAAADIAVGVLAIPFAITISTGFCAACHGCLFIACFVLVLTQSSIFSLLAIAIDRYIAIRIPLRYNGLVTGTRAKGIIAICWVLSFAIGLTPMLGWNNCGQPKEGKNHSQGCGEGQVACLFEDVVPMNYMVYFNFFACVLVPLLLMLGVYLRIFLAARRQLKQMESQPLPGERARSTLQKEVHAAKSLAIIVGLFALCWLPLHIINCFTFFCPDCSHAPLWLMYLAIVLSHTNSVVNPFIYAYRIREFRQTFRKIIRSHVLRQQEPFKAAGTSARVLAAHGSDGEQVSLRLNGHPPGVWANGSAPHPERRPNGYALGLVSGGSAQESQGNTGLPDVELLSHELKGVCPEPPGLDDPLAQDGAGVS
adenosine A2A receptor, sequence (P29274 whole entry): as above
adenosine A2B receptor (HEK-293-A2B cell membranes), sequence (P29275 whole entry): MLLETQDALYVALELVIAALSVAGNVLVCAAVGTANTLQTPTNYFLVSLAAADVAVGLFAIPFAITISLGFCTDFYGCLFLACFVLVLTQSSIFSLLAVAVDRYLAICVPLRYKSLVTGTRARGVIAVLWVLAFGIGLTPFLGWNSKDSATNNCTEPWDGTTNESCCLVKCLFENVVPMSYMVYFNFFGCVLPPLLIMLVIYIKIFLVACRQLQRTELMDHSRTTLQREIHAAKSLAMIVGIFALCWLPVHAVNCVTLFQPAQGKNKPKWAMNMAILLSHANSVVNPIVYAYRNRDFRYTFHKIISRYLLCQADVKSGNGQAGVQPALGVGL
adenosine A3 receptor (CHO-K1-A3 cell membranes), sequence (P0DMS8 whole entry): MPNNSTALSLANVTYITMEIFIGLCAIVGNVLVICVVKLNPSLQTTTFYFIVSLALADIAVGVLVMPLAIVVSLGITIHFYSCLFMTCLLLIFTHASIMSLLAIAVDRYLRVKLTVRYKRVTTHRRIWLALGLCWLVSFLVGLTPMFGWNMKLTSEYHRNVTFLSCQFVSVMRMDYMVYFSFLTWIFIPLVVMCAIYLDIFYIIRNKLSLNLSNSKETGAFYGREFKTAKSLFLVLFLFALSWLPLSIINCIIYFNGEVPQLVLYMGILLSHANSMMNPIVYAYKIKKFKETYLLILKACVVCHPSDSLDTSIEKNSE
recombinant human A2A receptor, sequence (P29274 whole entry): as the sequence (P29274 whole entry) above
adenosine A1 receptor (CHO-K1-A1 cell membranes), sequence (P30542 whole entry): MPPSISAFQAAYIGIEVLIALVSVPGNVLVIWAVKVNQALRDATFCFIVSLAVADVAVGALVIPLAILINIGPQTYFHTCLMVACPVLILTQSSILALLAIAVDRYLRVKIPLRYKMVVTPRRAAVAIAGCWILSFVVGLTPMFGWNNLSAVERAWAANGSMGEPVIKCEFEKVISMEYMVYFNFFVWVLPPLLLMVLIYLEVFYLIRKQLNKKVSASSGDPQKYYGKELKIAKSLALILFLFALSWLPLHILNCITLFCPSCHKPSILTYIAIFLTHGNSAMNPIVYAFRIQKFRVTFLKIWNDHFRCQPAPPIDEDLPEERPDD

As to `Nc1cnc(-c2ccc(O)c(Cl)c2)c(-c2ccccc2)n1` [Compound 1.1, 4-(5-amino-3-phenylpyrazin-2-yl)-2-chlorophenol], at adenosine A2A receptor (100 nM), the “A2A radioligand binding competition assay % residual binding @ 100 nM” value is 30%. The “A2A radioligand binding competition assay % residual binding @ 1000 nM” value at adenosine A2A receptor (1000 nM) came out at 12%. The IC50 on adenosine A2A receptor (Table B1-1) came out at 57 nM; in experiment [4] it was 6 nM. For the same compound, the “Radioligand binding competition assay % residual binding @ 300 nM (A1)” value in experiment [1] is reported as −3%. In experiment [2], the “Radioligand binding competition assay % residual binding @ 300 nM (A2B)” value is −9%. The “Radioligand binding competition assay % residual binding @ 300 nM (A3)” value in experiment [3] is recorded as 96%. The inhibition at 0.1 µM turned out to be 97% in experiment [4] and 82% in experiment [5].
`Nc1cnc(-c2ccc3nccnc3c2)c(-c2ccccc2)n1` [Compound No. 1.16, 6-phenyl-5-quinoxalin-6-yl-pyrazin-2-amine]: on adenosine A2A receptor, the “A2A radioligand binding competition assay % residual binding @ 3000 nM” value is reported as 80/ND/ND/ND %. Also, the inhibition at 0.1 µM in experiment [4] is 0%.
The corresponding values for `Nc1cnc(-c2cc(Cl)c3ncccc3c2)c(-c2ccccc2)n1` [Compound No. 1.17, 5-(8-chloroquinolin-6-yl)-6-phenylpyrazin-2-amine] are 8/ND/ND/ND % and 99%.
Consider `Nc1cnc(-c2ccc3ocnc3c2)c(-c2ccccc2)n1` [Compound No. 1.18, 5-(benzo[d]oxazol-5-yl)-6-phenylpyrazin-2-amine], for which the “A2A radioligand binding competition assay % residual binding @ 3000 nM” value on adenosine A2A receptor was 100/ND/ND/ND %. Further, the inhibition at 0.1 µM in experiment [4] was found to be 14%.
On to `Cc1ccc(-c2nc(N)cnc2-c2ccc3ncccc3c2)o1` [Compound No. 1.20, 6-(5-methylfuran-2-yl)-5-(quinolin-6-yl)pyrazin-2-amine], for which the “A2A radioligand binding competition assay % residual binding @ 3000 nM” value at adenosine A2A receptor is 3/ND/ND/ND %. Besides, in experiment [4], the inhibition at 0.1 µM amounted to 81%.
In the same order, the values of `Cc1ccc(-c2nc(N)cnc2-c2cc(Cl)c3ncccc3c2)o1` [Compound No. 1.21, 5-(8-chloroquinolin-6-yl)-6-(5-methylfuran-2-yl)pyrazin-2-amine] are 5/ND/ND/ND % and 100%.
The corresponding values for `Nc1cnc(-c2ccc3ncccc3c2)c(-n2cccn2)n1` [Compound No. 1.22, 6-(1H-pyrazol-1-yl)-5-(quinolin-6-yl)pyrazin-2-amine] are 39/ND/ND/ND % and 24%.
